In US20190262330A1, “Method of Treating Hepatocellular Carcinoma Using N-(4-(6,7-dimethoxyquinolin-4-yloxy)phenyl)-N′-(4-fluorophenyl)cyclopropane-1,1-dicarboxamide, (2S)-hydroxybutanedioate” (Exelixis, Inc., priority 2017, published 2019):

Columns and labels:
[1] = test system: patients with advanced hepatocellular carcinoma; test: Phase 3 CELESTIAL trial, safety; format: in vivo, human
Description: (§1) Treatment interruptions and dose reductions (to 40 mg and then to 20 mg) were utilized to manage adverse events. Patients received study treatment as long as they experienced clinical benefit as judged by the investigator or until they experienced unacceptable toxicity.
(§2) Secondary efficacy endpoints were progression-free survival, defined as the time from randomization to the earlier of radiographic progression or death due to any cause, and objective response rate. Tumor assessments were performed using computed tomography or magnetic resonance imaging at baseline and every 8 weeks after randomization until the later of 8 weeks after radiographic progression or treatment discontinuation. Tumor response and progression were assessed by the investigator using Response Evaluation Criteria In Solid Tumors (RECIST) version 1.1. Eisenhauer E A, Therasse P, Bogaerts J, et al. New response evaluation criteria in solid tumours: revised RECIST guideline (version 1.1). Eur J Cancer 2009; 45:228-47. Safety was continuously evaluated, and the severity of adverse events was assessed by the investigator using the National Cancer Institute Common Terminology Criteria for Adverse Events, version 4. Progression-free survival was tested by stratified log-rank test; significance level 0.04. Overall response rate was tested by 2-sided Fisher's exact test; significance level Of 0.01.
(§3) Efficacy was analyzed in all randomized patients by the intent-to-treat principle. Safety was analyzed in all patients who received at least one dose of study treatment. For time-to-event endpoints, hypothesis testing was done using the stratified log-rank test with the stratification factors used for randomization; median durations and associated 95% confidence intervals were estimated using the Kaplan-Meier method. Hazard ratios were estimated using Cox regression models. Hypothesis testing for objective response was done with the Cochran-Mantel-Haenszel method. All subgroup analyses of overall survival and progression-free survival were prespecified except for those based on extrahepatic spread of disease or macrovascular invasion as separate factors or sorafenib as the only prior therapy. For subgroup analyses, no adjustments were made for multiplicity, hazard ratios are unstratified, and confidence intervals are considered descriptive.
Patients on both arms who had disease progression could continue treatment at the discretion of the investigator [see Clinical Studies (14)].

[2] = test system: Sprague-Dawley rats; test: 2-year rat carcinogenicity study; format: in vivo
[3] = target: AXL (Homo sapiens, UniProt P30530); test: In vitro biochemical and/or cellular kinase assays
AXL, sequence (P30530 26-894): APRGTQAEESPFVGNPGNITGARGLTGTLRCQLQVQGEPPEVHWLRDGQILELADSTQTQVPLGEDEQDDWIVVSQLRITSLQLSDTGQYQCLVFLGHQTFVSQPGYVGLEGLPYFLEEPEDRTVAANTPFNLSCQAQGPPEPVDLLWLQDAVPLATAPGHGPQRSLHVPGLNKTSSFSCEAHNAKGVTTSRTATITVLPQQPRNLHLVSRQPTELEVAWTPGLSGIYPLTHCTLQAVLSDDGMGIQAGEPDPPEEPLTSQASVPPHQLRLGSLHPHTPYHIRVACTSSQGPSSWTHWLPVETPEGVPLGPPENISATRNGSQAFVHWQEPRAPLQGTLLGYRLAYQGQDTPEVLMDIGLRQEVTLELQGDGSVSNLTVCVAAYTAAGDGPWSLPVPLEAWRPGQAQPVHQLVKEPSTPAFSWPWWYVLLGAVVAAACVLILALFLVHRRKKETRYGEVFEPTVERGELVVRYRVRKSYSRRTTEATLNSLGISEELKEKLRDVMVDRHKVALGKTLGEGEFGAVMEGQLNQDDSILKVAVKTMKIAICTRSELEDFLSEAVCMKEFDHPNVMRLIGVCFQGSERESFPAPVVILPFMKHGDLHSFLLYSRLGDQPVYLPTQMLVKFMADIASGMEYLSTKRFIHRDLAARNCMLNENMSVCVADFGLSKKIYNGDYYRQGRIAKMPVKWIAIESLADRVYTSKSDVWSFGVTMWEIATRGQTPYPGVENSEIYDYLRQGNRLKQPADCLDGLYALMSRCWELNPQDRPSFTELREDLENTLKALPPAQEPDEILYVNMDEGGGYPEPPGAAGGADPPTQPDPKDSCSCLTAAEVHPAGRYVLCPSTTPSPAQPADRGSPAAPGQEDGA

[4] = target: RET (Homo sapiens, UniProt P07949); test: In vitro biochemical and/or cellular kinase assays
RET, sequence (P07949 29-1114): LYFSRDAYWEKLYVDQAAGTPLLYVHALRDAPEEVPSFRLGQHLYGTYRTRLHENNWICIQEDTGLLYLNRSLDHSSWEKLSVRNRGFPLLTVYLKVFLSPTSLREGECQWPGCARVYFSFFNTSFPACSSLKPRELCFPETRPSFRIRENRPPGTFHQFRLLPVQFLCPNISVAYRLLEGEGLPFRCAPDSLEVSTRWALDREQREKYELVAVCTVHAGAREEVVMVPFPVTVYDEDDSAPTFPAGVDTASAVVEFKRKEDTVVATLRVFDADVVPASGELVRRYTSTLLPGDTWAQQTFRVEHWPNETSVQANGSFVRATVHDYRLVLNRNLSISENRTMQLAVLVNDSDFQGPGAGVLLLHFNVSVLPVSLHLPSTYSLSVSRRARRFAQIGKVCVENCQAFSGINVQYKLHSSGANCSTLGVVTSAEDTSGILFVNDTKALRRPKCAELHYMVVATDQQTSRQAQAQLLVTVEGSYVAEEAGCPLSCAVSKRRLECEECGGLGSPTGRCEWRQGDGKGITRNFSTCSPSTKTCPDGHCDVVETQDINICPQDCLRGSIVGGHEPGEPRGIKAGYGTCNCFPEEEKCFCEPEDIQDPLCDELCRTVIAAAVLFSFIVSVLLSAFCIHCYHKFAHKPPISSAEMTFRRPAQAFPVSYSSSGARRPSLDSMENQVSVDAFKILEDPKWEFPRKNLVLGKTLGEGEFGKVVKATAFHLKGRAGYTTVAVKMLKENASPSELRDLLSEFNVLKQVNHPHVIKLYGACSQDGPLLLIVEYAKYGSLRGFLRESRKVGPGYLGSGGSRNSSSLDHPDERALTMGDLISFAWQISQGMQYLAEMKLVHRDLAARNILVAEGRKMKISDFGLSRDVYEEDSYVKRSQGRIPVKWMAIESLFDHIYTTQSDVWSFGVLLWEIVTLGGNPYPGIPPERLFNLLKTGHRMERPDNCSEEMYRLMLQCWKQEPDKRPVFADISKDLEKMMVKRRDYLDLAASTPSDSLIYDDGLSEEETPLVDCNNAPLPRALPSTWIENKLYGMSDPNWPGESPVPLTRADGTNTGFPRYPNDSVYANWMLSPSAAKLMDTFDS

[5] = target: CYP2D6 (Homo sapiens, UniProt P10635); test: In vitro CYP inhibition; format: in vitro ADME
CYP2D6, sequence (P10635 whole entry): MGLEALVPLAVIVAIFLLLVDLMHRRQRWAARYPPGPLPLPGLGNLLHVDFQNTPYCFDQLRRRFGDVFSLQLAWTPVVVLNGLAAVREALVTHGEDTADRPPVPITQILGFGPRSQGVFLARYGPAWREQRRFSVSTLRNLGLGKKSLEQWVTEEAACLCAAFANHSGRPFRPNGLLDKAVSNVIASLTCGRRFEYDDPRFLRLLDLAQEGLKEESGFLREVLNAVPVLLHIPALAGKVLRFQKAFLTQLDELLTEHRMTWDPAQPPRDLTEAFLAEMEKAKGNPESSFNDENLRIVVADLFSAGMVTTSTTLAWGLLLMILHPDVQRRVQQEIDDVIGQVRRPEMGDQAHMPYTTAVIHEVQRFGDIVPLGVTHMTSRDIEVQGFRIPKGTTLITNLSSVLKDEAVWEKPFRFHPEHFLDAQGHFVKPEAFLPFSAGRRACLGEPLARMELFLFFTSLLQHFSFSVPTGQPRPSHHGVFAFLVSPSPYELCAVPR

[6] = test system: previously treated advanced hepatocellular carcinoma; test: Phase 3 CELESTIAL trial, efficacy (overall survival, progression-free survival, objective response); format: in vivo, human
Source text: Eligible patients were 18 years of age or older with a pathologic diagnosis of hepatocellular carcinoma not amenable to curative treatment and with Child-Pugh Class A liver function. […] Additional inclusion criteria included Eastern Cooperative Oncology Group (ECOG) performance status of 0 or 1, acceptable hematologic parameters, and adequate renal function.
Randomization was stratified by disease etiology (HBV virus [with or without HCV], HCV [without HBV], or other), geographic region (Asia or other), and the presence of extrahepatic spread of disease and/or macrovascular invasion (yes or no).
as §1
The inflation of type 1 error was controlled by Lan-DeMets O'Brien-Fleming alpha-spending function.
as §2, with “Eur J Cancer 2009; 45:228-47.” left out
as §3, with “For time-to-event endpoints, hypothesis testing was done using the stratified log-rank test with the stratification factors used for randomization; median durations and associated 95% confidence intervals were estimated using the Kaplan-Meier method.” left out
Patients could have received one other prior systemic therapy. The primary efficacy endpoint was overall survival (OS). Secondary efficacy endpoints were progression-free survival (PFS) and objective response rate (ORR), as assessed by investigator using RECIST 1.1. Tumor assessments were conducted every 8 weeks.

[7] = target: TIE-2 (Homo sapiens, UniProt Q02763); test: In vitro biochemical and/or cellular kinase assays
TIE-2, sequence (Q02763 23-1124): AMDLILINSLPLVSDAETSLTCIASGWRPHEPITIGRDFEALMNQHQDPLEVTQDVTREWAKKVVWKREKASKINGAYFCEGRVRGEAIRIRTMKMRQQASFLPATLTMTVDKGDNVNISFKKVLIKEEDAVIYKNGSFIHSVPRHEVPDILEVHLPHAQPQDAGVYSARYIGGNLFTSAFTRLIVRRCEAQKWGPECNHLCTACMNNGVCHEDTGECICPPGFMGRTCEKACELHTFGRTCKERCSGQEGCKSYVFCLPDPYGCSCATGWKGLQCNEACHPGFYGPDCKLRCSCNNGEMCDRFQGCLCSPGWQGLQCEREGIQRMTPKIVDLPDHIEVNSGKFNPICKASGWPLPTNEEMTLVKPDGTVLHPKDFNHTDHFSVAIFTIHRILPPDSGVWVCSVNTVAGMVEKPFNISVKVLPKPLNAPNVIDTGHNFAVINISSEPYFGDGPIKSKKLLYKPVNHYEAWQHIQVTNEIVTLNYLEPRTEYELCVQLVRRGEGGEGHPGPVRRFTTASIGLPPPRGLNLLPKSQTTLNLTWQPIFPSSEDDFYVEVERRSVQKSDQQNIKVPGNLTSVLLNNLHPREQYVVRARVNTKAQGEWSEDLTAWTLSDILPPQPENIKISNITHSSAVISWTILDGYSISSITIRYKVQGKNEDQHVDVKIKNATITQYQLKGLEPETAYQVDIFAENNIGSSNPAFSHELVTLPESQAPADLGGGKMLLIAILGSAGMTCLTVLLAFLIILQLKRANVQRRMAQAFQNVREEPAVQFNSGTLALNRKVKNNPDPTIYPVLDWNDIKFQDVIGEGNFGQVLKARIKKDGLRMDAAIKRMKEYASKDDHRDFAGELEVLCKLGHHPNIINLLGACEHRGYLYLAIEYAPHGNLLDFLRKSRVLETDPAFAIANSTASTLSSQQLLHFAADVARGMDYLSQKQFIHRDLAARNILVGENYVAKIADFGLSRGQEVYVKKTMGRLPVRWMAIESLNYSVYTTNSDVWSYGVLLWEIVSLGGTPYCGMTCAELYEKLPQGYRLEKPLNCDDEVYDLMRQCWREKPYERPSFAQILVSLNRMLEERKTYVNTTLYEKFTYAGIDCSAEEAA

[8] = target: CYP2C19 (Homo sapiens, UniProt P33261); test: In vitro metabolic pathways; format: in vitro ADME
CYP2C19, sequence (P33261 whole entry): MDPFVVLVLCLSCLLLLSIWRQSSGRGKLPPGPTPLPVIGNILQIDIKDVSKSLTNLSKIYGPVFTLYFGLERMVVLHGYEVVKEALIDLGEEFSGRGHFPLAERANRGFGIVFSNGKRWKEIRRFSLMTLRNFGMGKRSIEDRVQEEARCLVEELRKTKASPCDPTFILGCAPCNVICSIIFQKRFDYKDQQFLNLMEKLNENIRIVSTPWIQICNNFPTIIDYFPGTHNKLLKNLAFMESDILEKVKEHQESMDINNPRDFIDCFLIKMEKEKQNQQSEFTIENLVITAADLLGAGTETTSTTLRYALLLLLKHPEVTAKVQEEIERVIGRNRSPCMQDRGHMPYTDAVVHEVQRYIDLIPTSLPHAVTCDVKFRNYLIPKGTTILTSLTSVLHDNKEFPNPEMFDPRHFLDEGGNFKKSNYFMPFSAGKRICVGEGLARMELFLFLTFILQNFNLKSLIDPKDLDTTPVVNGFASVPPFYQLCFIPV

[9] = test system: female rats; test: 14-day general toxicology study in female rats; format: in vivo, rat; conditions: 5 mg/kg/day for 14 days
[10] = target: CYP2B6 (Homo sapiens, UniProt P20813); test: In vitro metabolic pathways; format: in vitro ADME
CYP2B6, sequence (P20813 whole entry): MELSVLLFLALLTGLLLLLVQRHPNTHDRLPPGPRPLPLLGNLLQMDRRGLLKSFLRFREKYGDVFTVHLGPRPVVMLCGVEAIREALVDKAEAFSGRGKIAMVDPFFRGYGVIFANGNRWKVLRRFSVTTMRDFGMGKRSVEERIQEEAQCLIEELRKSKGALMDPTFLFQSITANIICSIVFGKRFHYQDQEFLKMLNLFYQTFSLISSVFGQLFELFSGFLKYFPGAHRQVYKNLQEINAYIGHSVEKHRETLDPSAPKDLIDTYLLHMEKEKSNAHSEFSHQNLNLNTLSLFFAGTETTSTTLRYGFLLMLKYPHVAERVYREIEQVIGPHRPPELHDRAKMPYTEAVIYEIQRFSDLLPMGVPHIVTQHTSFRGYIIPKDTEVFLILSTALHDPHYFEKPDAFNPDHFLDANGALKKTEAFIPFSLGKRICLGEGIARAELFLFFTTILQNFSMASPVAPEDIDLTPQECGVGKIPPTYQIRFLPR

[11] = test system: female rats and offspring; test: Pre- and postnatal study in rats; conditions: oral, gestation day 10 through postnatal day 20
[12] = subgroup whose only prior systemic therapy was sorafenib

## COc1cc2nccc(Oc3ccc(NC(=O)C4(C(=O)Nc5ccc(F)cc5)CC4)cc3)c2cc1OC [cabozantinib]
[1]; CELESTIAL
  Grade 5 adverse events considered related to study treatment: 6 patients
  Grade 5 adverse events within 30 days of last dose: 12%
[1]; human, in vivo
  Adverse events of any grade regardless of causality: 99%
  Adverse events of grade 3 or 4: 68%
  Any dose reduction: 62%
  Diarrhea, Grade 3/4: 10%
  Discontinuation due to treatment-related adverse event: 16%
  Dose reduction due to diarrhea: 10%
  Dose reduction due to fatigue: 7%
  Dose reduction due to hypertension: 7%
  Dose reduction due to increased aspartate aminotransferase: 6%
  Dose reduction due to palmar-plantar erythrodysesthesia syndrome: 22%
  Fatigue, Grade 3/4: 10%
  Hypertension, Grade 3/4: 16%
  Increased aspartate aminotransferase, grade 3 or 4 adverse event: 12%
  Median time to first dose reduction: 38 days
  Palmar-plantar erythrodysesthesia, Grade 3/4: 17%
  Serious adverse events: 50%
[2]; 1 mg/kg
  Exposure at that dose, times the human exposure by AUC at the recommended 60 mg dose: approximately 5 times
[2]; once daily oral, 2-year
  Dose with statistically significant increase in incidence of pheochromocytoma in male rats: 1 mg/kg
[3]
  Tyrosine kinase activity of AXL: inhibits
[4]
  Tyrosine kinase activity of RET: inhibits
[5]
  Inhibition of CYP2D6: does not inhibit
[6]; 6 months
  Kaplan-Meier landmark estimate of % of patients alive (95% CI): 72 (67-76) %
[6]; 12 months
  Kaplan-Meier landmark estimate of % of patients alive (95% CI): 46 (41-50) %
[6]; 18 months
  Kaplan-Meier landmark estimate of % of patients alive (95% CI): 32 (27-37) %
[6]; 24 months
  Kaplan-Meier landmark estimate of % of patients alive (95% CI): 18 (14-22) %
[6]; ITT
  Disease control (partial response or stable disease): 64%
[6]; ITT, second interim analysis, 60 mg once daily
  Median overall survival: 10.2 months
[6]; RECIST 1.1, confirmed responses, ITT
  Objective response rate: 4%
[6]; RECIST 1.1 per investigator, ITT
  Median progression-free survival: 5.2 months
[6]; by investigator
  Best overall response: complete response, n (%): 0
  Best overall response: not evaluable or missing: (15) %
  Best overall response: partial response: (4) %
  Best overall response: progressive disease: (21) %
  Best overall response: stable disease: (60) %
[6]; in vivo
  Improvement in progression-free survival vs placebo: more than 3 months
[6]; [12]
  Median overall survival: 11.3 months
  Median progression-free survival: 5.5 months
[7]
  Tyrosine kinase activity of TIE-2: inhibits
[8]
  Effect of inhibition of CYP2C19 on metabolite formation: no effect
[9]
  Ovarian finding: ovarian necrosis
[10]
  Effect of inhibition of CYP2B6 on metabolite formation: no effect
[11]
  Doses without adverse maternal toxicity or effect on offspring survival, growth or postnatal development: up to 0.3 mg/kg/day
